Data taken from patent publication US20150017667A1, “MEANS AND METHODS FOR ASSESSING LIVER DISORDERS” (BASF SE, priority 2012, published 2015).
Marks after values point to notes of the source that are not given here.

Test system: male rats
Assay: 28-day repeated dose oral toxicity study (OECD 407) with GC-MS/LC-MS plasma metabolite profiling, male rats
Assay type: in vivo, rat
Details: plasma
Text: Drinking water was also offered ad libitum.
The samples were centrifuged for generation of plasma.

## CC(C)(Oc1ccc(CCNC(=O)c2ccc(Cl)cc2)cc1)C(=O)O [Bezafibrate]
Day 7
  3-O-Methylsphingosine (d18:1), ratio versus control: 0.48*
  5-O-Methylsphingosine (d18:1), ratio versus control: 0.4*
  14-Methylhexadecanoic acid, ratio versus control: 0.93
  16-Methylheptadecanoic acid, ratio versus control: 0.29*
  17-Methyloctadecanoic acid, ratio versus control: 0.24*
  Arachidonic acid (C20:cis[5,8,11,14]4), ratio versus control: 0.26*
  Arginine, ratio versus control: 0.65*
  Ascorbic acid, ratio versus control: 1.54*
  Behenic acid (C22:0), ratio versus control: 0.44*
  Campesterol, ratio versus control: 0.24*
  Cholesterol, ratio versus control: 0.37*
  Choline plasmalogen (C18,C20:4), ratio versus control: 0.47*
  Choline plasmalogen No 01, ratio versus control: 0.87*
  Choline plasmalogen No 02, ratio versus control: 0.46*
  Choline plasmalogen No 03, ratio versus control: 0.49*
  Coenzyme Q10, ratio versus control: 0.46*
  Cytosine, ratio versus control: 0.89*
  Docosapentaenoic acid (C22:cis[7,10,13,16,19]5), ratio versus control: 0.43*
  Eicosanoic acid (C20:0), ratio versus control: 0.51*
  Glucose, ratio versus control: 1.54*
  Glycine, ratio versus control: 1.79*
  Heptadecanoic acid (C17:0), ratio versus control: 0.69*
  Isopalmitic acid (C16:0), ratio versus control: 0.53*
  Kynurenic acid, ratio versus control: 1.89*
  Lignoceric acid (C24:0), ratio versus control: 0.54*
  Lysophosphatidylcholine (C17:0), ratio versus control: 0.51*
  Lysophosphatidylcholine (C18:0), ratio versus control: 0.79*
  Lysophosphatidylcholine (C18:2), ratio versus control: 1.4*
  Lysophosphatidylethanolamine (C22:0), ratio versus control: 0.27*
  Lysophosphatidylethanolamine (C22:5), ratio versus control: 1.59*
  Mannose, ratio versus control: 1.32*
  Metanephrine, ratio versus control: 0.5
  Nervonic acid (C24:cis[15]1), ratio versus control: 0.4*
  Normetanephrine, ratio versus control: 0.6*
  Pantothenic acid, ratio versus control: 2.36*
  Phosphatidylcholine (C18:0,C20:3), ratio versus control: 0.48*
  Phosphatidylcholine (C18:0,C20:4), ratio versus control: 0.78*
  Phosphatidylcholine (C18:2,C20:4), ratio versus control: 0.65*
  Phosphatidylcholine No 02, ratio versus control: 0.35*
  Phosphatidylcholine No 04, ratio versus control: 0.23*
  Sphingomyelin (d18:1,C16:0), ratio versus control: 0.88*
  Sphingomyelin (d18:2,C16:0), ratio versus control: 0.72*
  Stearic acid (C18:0), ratio versus control: 0.42*
  Tricosanoic acid (C23:0), ratio versus control: 0.5*
  beta-Sitosterol, ratio versus control: 0.24*
  dihomo-gamma-Linolenic acid (C20:cis[8,11,14]3), ratio versus control: 3.63*
  erythro-Sphingosine, ratio versus control: 0.49*
  myo-Inositol-2-phosphate, lipid fraction, ratio versus control: 0.28*
  threo-Sphingosine, ratio versus control: 0.56*
  trans-4-Hydroxyproline, ratio versus control: 0.71*
Day 7 (Table 3a)
  Lysophosphatidylcholine (C18:1), ratio versus control: 1.44*
  Phosphatidylcholine (C16:0,C20:5), ratio versus control: 1.4*
Day 7 (Table 3b)
  Docosahexaenoic acid (C22:cis[4,7,10,13,16,19]6), ratio versus control: 0.25*
  Phosphatidylcholine (C18:0,C22:6), ratio versus control: 0.36*
  alpha-Tocopherol, ratio versus control: 0.75*
Day 14
  3-O-Methylsphingosine (d18:1), ratio versus control: 0.44*
  5-O-Methylsphingosine (d18:1), ratio versus control: 0.41*
  14-Methylhexadecanoic acid, ratio versus control: 0.89*
  16-Methylheptadecanoic acid, ratio versus control: 0.25*
  17-Methyloctadecanoic acid, ratio versus control: 0.24*
  Arachidonic acid (C20:cis[5,8,11,14]4), ratio versus control: 0.31*
  Arginine, ratio versus control: 0.59*
  Ascorbic acid, ratio versus control: 1.32*
  Behenic acid (C22:0), ratio versus control: 0.58*
  Campesterol, ratio versus control: 0.31*
  Cholesterol, ratio versus control: 0.48*
  Choline plasmalogen (C18,C20:4), ratio versus control: 0.5*
  Choline plasmalogen No 01, ratio versus control: 0.82*
  Choline plasmalogen No 02, ratio versus control: 0.52*
  Choline plasmalogen No 03, ratio versus control: 0.63*
  Coenzyme Q10, ratio versus control: 0.58*
  Cytosine, ratio versus control: 0.84
  Docosapentaenoic acid (C22:cis[7,10,13,16,19]5), ratio versus control: 0.62*
  Eicosanoic acid (C20:0), ratio versus control: 0.67*
  Glucose, ratio versus control: 1.29*
  Glycine, ratio versus control: 1.58*
  Heptadecanoic acid (C17:0), ratio versus control: 0.83*
  Isopalmitic acid (C16:0), ratio versus control: 0.53*
  Kynurenic acid, ratio versus control: 5.15*
  Lignoceric acid (C24:0), ratio versus control: 0.44*
  Lysophosphatidylcholine (C17:0), ratio versus control: 0.51*
  Lysophosphatidylcholine (C18:0), ratio versus control: 0.85*
  Lysophosphatidylcholine (C18:2), ratio versus control: 1.68*
  Lysophosphatidylethanolamine (C22:0), ratio versus control: 0.32*
  Lysophosphatidylethanolamine (C22:5), ratio versus control: 1.9*
  Mannose, ratio versus control: 1.34*
  Metanephrine, ratio versus control: 0.44*
  Nervonic acid (C24:cis[15]1), ratio versus control: 0.44*
  Normetanephrine, ratio versus control: 0.5*
  Pantothenic acid, ratio versus control: 2.3*
  Phosphatidylcholine (C18:0,C20:3), ratio versus control: 0.56*
  Phosphatidylcholine (C18:0,C20:4), ratio versus control: 0.78
  Phosphatidylcholine (C18:2,C20:4), ratio versus control: 0.66*
  Phosphatidylcholine No 02, ratio versus control: 0.37*
  Phosphatidylcholine No 04, ratio versus control: 0.25*
  Sphingomyelin (d18:1,C16:0), ratio versus control: 0.83*
  Sphingomyelin (d18:2,C16:0), ratio versus control: 0.67*
  Stearic acid (C18:0), ratio versus control: 0.45*
  Tricosanoic acid (C23:0), ratio versus control: 0.72*
  beta-Sitosterol, ratio versus control: 0.3*
  dihomo-gamma-Linolenic acid (C20:cis[8,11,14]3), ratio versus control: 4.4*
  erythro-Sphingosine, ratio versus control: 0.4*
  myo-Inositol-2-phosphate, lipid fraction, ratio versus control: 0.37*
  threo-Sphingosine, ratio versus control: 0.52*
  trans-4-Hydroxyproline, ratio versus control: 0.57*
Day 14 (Table 3a)
  Lysophosphatidylcholine (C18:1), ratio versus control: 1.92*
  Phosphatidylcholine (C16:0,C20:5), ratio versus control: 1.4*
Day 14 (Table 3b)
  Docosahexaenoic acid (C22:cis[4,7,10,13,16,19]6), ratio versus control: 0.25*
  Phosphatidylcholine (C18:0,C22:6), ratio versus control: 0.33*
  alpha-Tocopherol, ratio versus control: 0.77*
Day 28
  3-O-Methylsphingosine (d18:1), ratio versus control: 0.39*
  5-O-Methylsphingosine (d18:1), ratio versus control: 0.4*
  14-Methylhexadecanoic acid, ratio versus control: 0.83*
  16-Methylheptadecanoic acid, ratio versus control: 0.16*
  17-Methyloctadecanoic acid, ratio versus control: 0.17*
  Arachidonic acid (C20:cis[5,8,11,14]4), ratio versus control: 0.29*
  Arginine, ratio versus control: 0.62*
  Ascorbic acid, ratio versus control: 1.55*
  Behenic acid (C22:0), ratio versus control: 0.51*
  Campesterol, ratio versus control: 0.21*
  Cholesterol, ratio versus control: 0.43*
  Choline plasmalogen (C18,C20:4), ratio versus control: 0.51*
  Choline plasmalogen No 01, ratio versus control: 0.55*
  Choline plasmalogen No 02, ratio versus control: 0.49*
  Choline plasmalogen No 03, ratio versus control: 0.54*
  Coenzyme Q10, ratio versus control: 0.48*
  Cytosine, ratio versus control: 0.79*
  Docosapentaenoic acid (C22:cis[7,10,13,16,19]5), ratio versus control: 0.31*
  Eicosanoic acid (C20:0), ratio versus control: 0.52*
  Glucose, ratio versus control: 1.32*
  Glycine, ratio versus control: 1.95*
  Heptadecanoic acid (C17:0), ratio versus control: 0.52*
  Isopalmitic acid (C16:0), ratio versus control: 0.47*
  Kynurenic acid, ratio versus control: 2.04*
  Lignoceric acid (C24:0), ratio versus control: 0.44*
  Lysophosphatidylcholine (C17:0), ratio versus control: 0.36*
  Lysophosphatidylcholine (C18:0), ratio versus control: 0.86*
  Lysophosphatidylcholine (C18:2), ratio versus control: 1.33*
  Lysophosphatidylethanolamine (C22:0), ratio versus control: 0.18*
  Lysophosphatidylethanolamine (C22:5), ratio versus control: 1.29*
  Mannose, ratio versus control: 1.23*
  Metanephrine, ratio versus control: 0.55*
  Nervonic acid (C24:cis[15]1), ratio versus control: 0.39*
  Normetanephrine, ratio versus control: 0.78*
  Pantothenic acid, ratio versus control: 3.51*
  Phosphatidylcholine (C18:0,C20:3), ratio versus control: 0.57*
  Phosphatidylcholine (C18:0,C20:4), ratio versus control: 0.75*
  Phosphatidylcholine (C18:2,C20:4), ratio versus control: 0.56*
  Phosphatidylcholine No 02, ratio versus control: 0.47*
  Phosphatidylcholine No 04, ratio versus control: 0.24*
  Sphingomyelin (d18:1,C16:0), ratio versus control: 0.71*
  Sphingomyelin (d18:2,C16:0), ratio versus control: 0.49*
  Stearic acid (C18:0), ratio versus control: 0.39*
  Tricosanoic acid (C23:0), ratio versus control: 0.54*
  beta-Sitosterol, ratio versus control: 0.2*
  dihomo-gamma-Linolenic acid (C20:cis[8,11,14]3), ratio versus control: 3.24*
  erythro-Sphingosine, ratio versus control: 0.43*
  myo-Inositol-2-phosphate, lipid fraction, ratio versus control: 0.38*
  threo-Sphingosine, ratio versus control: 0.55*
  trans-4-Hydroxyproline, ratio versus control: 0.72*
Day 28 (Table 3a)
  Lysophosphatidylcholine (C18:1), ratio versus control: 1.22*
  Phosphatidylcholine (C16:0,C20:5), ratio versus control: 1.21*
Day 28 (Table 3b)
  Docosahexaenoic acid (C22:cis[4,7,10,13,16,19]6), ratio versus control: 0.14*
  Phosphatidylcholine (C18:0,C22:6), ratio versus control: 0.27*
  alpha-Tocopherol, ratio versus control: 0.64*
